Like-named read-outs stand apart in the source and are kept apart here. Non-standard residues stand in square brackets, D forms with d. Residues, ends and D or L forms follow the SMILES beside them. Groups on a side chain read outwards from the residue. *: point of attachment. Biotin = O=C1N[C@H]2[C@H](CS[C@H]2CCCCC(=O)*)N1; Ahx = NCCCCCC(=O)O
Tests used:
HIV-1 strain LAV-Vbu3 [1] = system: HIV-1 strain LAV-Vbu3
in vitro = settings: human
HIV-1 strain LAV-Vbu3 [2] = test: microbe, parasite or virus in culture; settings: Human immunodeficiency virus 1, MT2, 120 h, read-out: EC50 (anti-HIV activity)
[3] = design: method as in PMID 15546199; settings: PBS pH 7.4, 37°C; cited from earlier work
[4] = design: method as in PMID 15546199; settings: spiked plasma, 37°C; cited from earlier work

| Compound | Therapeutic Index (LC50/EC50) (HIV-1 strain LAV-Vbu3 [1]; strain LAV-Vbu3) | CC50 (in vitro) | anti-HIV potency relative to L-Tat9 (times more potent) (HIV-1 strain LAV-Vbu3 [1]; MT-2 cells infected with HIV-1) | EC50 (HIV-1 strain LAV-Vbu3 [1]; strain LAV-Vbu3) | other results |
| --- | --- | --- | --- | --- | --- |
| CC(=O)N[C@@H](CCCNC(=N)N)C(=O)N[C@@H](CCCCN)C(=O)N[C@@H](CCCCN)C(=O)N[C@@H](CCCNC(=N)N)C(=O)N[C@@H](CCCNC(=N)N)C(=O)N[C@@H](CCC(N)=O)C(=O)N[C@@H](CCCNC(=N)N)C(=O)N[C@@H](CCCNC(=N)N)C(=O)N[C@@H](CCCNC(=N)N)C(N)=O [L-Tat9, reference compound] | 1 | 53.8 µM | – | – | Therapeutic Index (LC50/EC50) (HIV-1 strain LAV-Vbu3 [1]; listed as L-form of Tat9): poorest therapeutic index; EC50 (HIV-1 strain LAV-Vbu3 [1]; read-out: EC50 (anti-HIV activity), MT-2 cells infected with HIV-1 strain LAV-Vbu3, MOI 0.01, MTT, 5 days): 51300 nM |
| CC(=O)N[C@H](CS)C(=O)N[C@H](CCCCNC(=O)CCCCCNC(=O)CCCC[C@@H]1SC[C@@H]2NC(=O)N[C@@H]21)C(=O)N[C@H](CCCNC(=N)N)C(=O)N[C@H](CCCNC(=N)N)C(=O)N[C@H](CCCNC(=N)N)C(=O)N[C@H](CCC(N)=O)C(=O)N[C@H](CCCNC(=N)N)C(=O)N[C@H](CCCNC(=N)N)C(=O)N[C@H](CCCCN)C(=O)N[C@H](CCCCN)C(=O)N[C@H](CCCNC(=N)N)C(N)=O [R.I.CK(biotin)-Tat9] (Ac-[dC][dK]([Ahx-Biotin])[dR][dR][dR][dQ][dR][dR][dK][dK][dR]-NH2) | 2600 | 46.8 µM | 2850 fold | 18 nM | anti-HIV potency relative to RI-Tat9 (times more potent) (HIV-1 strain LAV-Vbu3 [1]; MT-2 cells infected with HIV-1): 47 fold; R (ratio of the EC50 of the bioconjugate to that of its parent drug R.I.CK-Tat9 or SQV) (HIV-1 strain LAV-Vbu3 [1]; MT-2 cells, HIV-1 LAV-Vbu3, MOI 0.01): 0.02 |
| CC(=O)N[C@H](CS)C(=O)N[C@H](CCCCN)C(=O)N[C@H](CCCNC(=N)N)C(=O)N[C@H](CCCNC(=N)N)C(=O)N[C@H](CCCNC(=N)N)C(=O)N[C@H](CCC(N)=O)C(=O)N[C@H](CCCNC(=N)N)C(=O)N[C@H](CCCNC(=N)N)C(=O)N[C@H](CCCCN)C(=O)N[C@H](CCCCN)C(=O)N[C@H](CCCNC(=N)N)C(N)=O [R.I.CK-Tat9, N-acetyl-ckrrrqrrkkr-NH2] (Ac-[dC][dK][dR][dR][dR][dQ][dR][dR][dK][dK][dR]-NH2) | 35 | 29.8 µM | 60 fold | 850 nM | – |
| CC(C)(C)NC(=O)[C@@H]1C[C@@H]2CCCC[C@@H]2CN1C[C@@H](O)[C@H](Cc1ccccc1)NC(=O)[C@H](CC(N)=O)NC(=O)c1ccc2ccccc2n1 [SQV(MeSO3H) (control), saquinavir, reference compound] | – | – | – | – | Therapeutic Index (LC50/EC50) (HIV-1 strain LAV-Vbu3 [1]; MT-2 cells, LC50 in uninfected cells / EC50 in infected cells): 1667; CC50 at 5 days (in vitro): 25 µM; EC50 (HIV-1 strain LAV-Vbu3 [2]): 15 nM |
| CC(C)(C)NC(=O)[C@@H]1C[C@@H]2CCCC[C@@H]2CN1C[C@@H](OC(=O)C(N)CS)[C@H](Cc1ccccc1)NC(=O)[C@H](CC(N)=O)NC(=O)c1ccc2ccccc2c1 (stereo partly shown) [SQV-Cys ester] | – | – | – | – | half-life of release of active SQV (ester bond) [3]: 14 h; half-life of release of active SQV (ester bond) [4]: 54 min |

Source: publication PMC1481600 (AIDS Research and Therapy, 2006)
